Assay results as given in patent US7439251B2, “Methods and compositions for treatment of central and peripheral nervous system disorders and novel compounds useful therefor” (Israel Institute for Biological Research, priority 2002, dated 2008).

Legend:
[1] = tested on: tau; assay: Tau phosphorylation, AT8 immunoblot; type: cell-based; details: 100 μM; to the control level
Description: Following the experimental design of Sadot et al., J.Neurochem. […] By linking an M1 agonist to an antioxidant moiety tau phophorylation may be decreased, providing a new therapeutic strategy in a variety of CNS disease states due to combined damage due to oxidative stress and tau hyperphosphorylation.

[2] = tested on: rat pheochromocytoma cells transfected with the M1 mAChR
[3] = tested on: ApoE; assay: ApoE synthesis and secretion in rat primary type 1 astrocytes; type: cell-based; details: 96 hrs; 0.1 nM
Experimental: Primary cultures of type 1 astrocytes were derived from the cortex of Sprague Dawley rats. The compounds tested were dissolved in the culture media and added to cells for 24, 48, 72 and 96 hrs. Media was then removed and kept frozen until ApoE protein levels were evaluated by immunoblot analysis as described in Poirier et al Neuroscience 55: 81-90 (1993).

[4] = Morris water maze in C57BL/10SnJ (small hippocampus) vs C57BL6J mice; type: in vivo; details: for reversal test, swimming speed: normal hippocampi mice, AF150(S) 0.5 mg/kg, AF267B 1 mg/kg
Experimental: C57BL/10SnJ (B10) mice were selected due to their small hippocampi and decreased number of hippocampal pyramidal neurons; the cell loss seemed to be associated with poor spatial learning.
Each group of mice was randomly divided into 7 treatment groups (n=12-14/group). […] All tested compounds and saline were administered once a day for 4 days before starting the behavioral testing, and then for the duration of the 5-day experiment, 30 minutes before testing.
Training: Each mouse was trained for four consecutive days, four trials (one block) per day, in which the platform position remained constant and was located in the center of the southeast quadrant of the pool. Within each block of four trials, each mouse started at each of the starting locations, but the sequence of locations was randomly selected. A trial consisted of placing a mouse by hand into the water facing the wall of the pool at one of four starting locations, north, south, east or west, around the pool's perimeter. Escape latency (the time to find the platform), path length (the distance traveled by the mouse) and speed (the swimming rate of the mouse) were recorded on each trial by the monitoring system.
For each mouse, the path length, escape latency, and swimming speed of the four trials on each of the 4 training days were grouped into blocks (one block for each day). […] Specific comparisons were performed, using the simple main effects contrasts analysis, which is specifically suited for testing significant interactions.
Transfer test. During trial No. 17, on the fourth day, the platform was entirely removed from the pool (a probe trial). In this trial, the mouse was placed into the water for a limited period (30 s), and its spatial bias was measured by recording the relative distribution of escape latency and path length over the four quadrants of the pool.
Reversal test. During trials 18-21, on the fifth day, the platform position was changed to the northwest quadrant, opposite to the training quadrant Thus, during reversal learning, the platform location was moved relative to the configuration of objects within the room, but the pool occupied the same place within the room throughout the entire experiment. Testing of the […] and measures taken were the same as in training.
For each mouse, the escape latency, path length and swimming speed of the reversal test (trials No. 18-21) were grouped into one block.

[5] = small hippocampus mice, AF compounds 0.5 and 1 mg/kg i.p., rivastigmine, nicotine 1 mg/kg i.p.

Question: What does the source list for `CCC1SC2(CCN(C)CC2)N(C(=O)CCc2c[nH]c3ccccc23)C1=O` (racemic) [AF704, 2-Ethyl-4(3-1H-indol-3-yl-propionyl)-8-methyl-1-thia-4,8-diaza-spiro[4.5]decan-3-one]?
Answer: phosphorylated tau (AT8) [1]: induce dephosphorylation of tau proteins; β-A25-35-induced cytotoxicity [2]: more effective than carbachol and AF267B

Question: For `CC1OC2(CS1)CN1CCC2CC1` (stereo not shown) [AF102B, reference compound], which “inhibition of ApoE production” value [3] is on record?
Answer: Its value is “inactive”.

Question: With `CC[C@@H]1SC2(CCN(C)CC2)N(S(=O)(=O)c2ccc(F)cc2)C1=O` [AF700, (S)-2-Ethyl-4-(4-fluoro-benzenesulfonyl)-8-methyl-1-thia-4,8diaza-spiro[4.5]decan-3-one] as the compound, how does the β-A25-35-induced cytotoxicity [2] read?
Answer: Its β-A25-35-induced cytotoxicity is “more effective than carbachol and AF267B”.

Question: Which β-A25-35-induced cytotoxicity [2] does the source give for `CCC1SC2(CCN(C)CC2)N(CCc2c[nH]c3ccccc23)C1=O` (stereo not shown) [AF703, 2-Ethyl-4-[2-(1H-indol-3-yl)ethyl]-8-methyl-1-thia-4,8-diaza-spiro[4.5]decan-3-one] here?
Answer: The β-A25-35-induced cytotoxicity was “more effective than carbachol and AF267B”.

Question: Which “reversal test, swimming speed” value [4] does the source give for `CN1CCCC1c1cccnc1` (stereo not shown) [nicotine, reference compound] here?
Answer: The value was “significantly decreased”.

Question: What about the “training, escape latency” value ([4]; normal hippocampus mice) of the same compound?
Answer: The value was “degraded the performance”.

Question: What about the “training, swimming speed” value ([4]; normal hippocampus mice) of the same compound?
Answer: Its value is “significantly decreased the swimming speed”.

Question: And the “reversal test, escape latency” value ([4]; normal hippocampus mice, AF150(S) at 0.5 mg/kg)?
Answer: Its value is “no significant effect”.

Question: And the “training, swimming speed” value ([4]; small hippocampus mice)?
Answer: Its value is “Neither rivastigmine nor nicotine had any significant effect”.

Question: And the “transfer test, spatial bias” value ([4]; small hippocampus mice)?
Answer: Its value is “only a partial spatial bias”.

Question: And the “training, escape latency” value [4, 5]?
Answer: Its value is “no improving effect”.

Question: With `CCN(C)C(=O)Oc1cccc([C@H](C)N(C)C)c1` [rivastigmine, reference compound] as the compound, how does the “reversal test, swimming speed” value [4] read?
Answer: The value was “significantly decreased”.

Question: What about the “training, swimming speed” value ([4]; normal hippocampus mice) of the same compound?
Answer: The value was “significantly decreased the swimming speed”.

Question: And the “training, swimming speed” value ([4]; small hippocampus mice)?
Answer: Its value is “Neither rivastigmine nor nicotine had any significant effect”.

Question: And the “transfer test, spatial bias” value ([4]; small hippocampus mice)?
Answer: Its value is “complete spatial bias”.

Question: And the “training, path length” value ([4]; small hippocampus mice, AF150(S) both doses, AF267B the higher dose)?
Answer: Its value is “positively affected the performance”.

Question: What about the “training, escape latency” value [4, 5] of the same compound?
Answer: Its value is “positively affected the training performance”.

Question: With “(S)-Ethyl-4-(3-1H-indol-3-yl-propionyl)-8-methyl-1-thia-4,8-diaza-spiro[4.5]decan-3-one [AF704B]” as the compound, how does the “phosphorylated tau (AT8)” value [1] read?
Answer: Its value is “induce dephosphorylation of tau proteins”.
